Experimental data: article PMC9408991, “Antitumor Effects of a New Retinoate of the Fungal Cytotoxin Illudin M in Brain Tumor Models” (International Journal of Molecular Sciences, 2022)

System: brain-derived cells (NE-4C, neurons, astrocytes, C6, U87, U251, MZ-54)
Assay: MTT assay, summary over brain-derived cells
Type: cell-based
Details: 48 h, read-out: IC50 (48 h) values, range over brain-derived cells
Procedure: Non-GBM cells (5 × 10^4 cells/mL, 100 µL/well) were grown in 96-well plates for 24 h. Then, they were treated with various concentrations of the test compounds or vehicle (DMSO, or EtOH) for 72 h at 37 °C. After the addition of 12.5 µL of a 0.5% MTT solution in PBS, the cells were incubated for 3 h at 37 °C so that the water-soluble MTT could be converted to formazan crystals. Then, the plates were centrifuged (300× g, 5 min, 4 °C), the medium withdrawn, and the formazan dissolved in 25 µL of DMSO containing 10% sodium dodecylsulfate (SDS) and 0.6% acetic acid for at least 2 h at 37 °C. In the case of the HL60 cells, after 2 h, the precipitate of formazan crystals was redissolved in a 10% solution of SDS in DMSO containing 0.6% acetic acid.
Adherently grown GBM cells were seeded at 5 × 10^4 cells/mL and floating spheres at 8 × 10^4 cells/mL in 100 µL/well and incubated as above for 48 or 72 h at 37 °C. Afterward, 10 µL of a 5 mg/mL MTT solution in PBS was added to the cells for 3 h at 37 °C. Then, the spheres were centrifuged shortly to collect the cells on the bottom of the plate, and the medium was removed by careful pipetting for both adherently grown and floating sphere GBM cultures. […] The absorbance of formazan (λ = 570 nm), and background (λ = 630 nm) was measured with a microplate reader (Tecan Spark, Tecan Deutschland GmbH, Crailsheim, Germany).

## CC1=C2C(=CC(C)(C)[C@@H]2O)C(=O)[C@](C)(O)C12CC2 [Compound 1, illudin M]
  IC50: 50 to 400 nM
